Data: patent publication US7018624B2, “Delivery of poly(ethylene glycol)-modified molecules from degradable hydrogels” (Debio Recherche Pharmaceutique S.A., priority 1996, dated 2006)

Assay: Hydrolysis kinetics of the ester linkages of mPEG-O-(CH2)n-COO-mPEG in buffer, followed by HPLC-GPC
Assay type: physicochemical
Protocol: To precisely measure the hydrolysis kinetics of the ester linkages, water-soluble, non-crosslinked mPEG-O—(CH2)n—COO-MPEG was synthesized as in Example 2. Hydrolysis was carried out in buffer solutions (0.1 M) at different pHs and temperatures, and followed by HPLC-GPC (Ultrahydrogel® 250, Waters).

- Hydrolysis half lives of the ester (pH 5.5): >150 days
- Hydrolysis half lives of the ester (pH 8.1): 5 days
Substance: mPEG-O-(CH2)n-COO-mPEG [CM ester linkage]
